This note sets out measurements from PubChem BioAssay AID1996.

≈ marks a conversion by molar mass, not a printed value.

The term kinetic solubility denotes solubility judged after dilution from a stock solution rather than from solid.

For the data set the following is noted: buffer; pH 7.4; 200.0 µM.
`CN1CCN(S(=O)(=O)c2ccccc2)CC1`: the solubility (kinetic) came out at 34.6 µg/mL (≈ 144 µM).

In the case of `O=C(CCCO)NC1Cc2ccccc2C1`, the solubility (kinetic) was 31.7 µg/mL (≈ 145 µM).

`COc1ccccc1NC(=O)NNC(=O)CCN1CCOCC1` displayed a kinetic solubility above 48.4 µg/mL.

Compound `CCCCC1(C)NC(=O)N(CC(=O)Nc2ccc(Cl)cc2C)C1=O` (stereo unspecified) displayed a kinetic solubility of 48.7 µg/mL (≈ 138 µM).

Turning to `O=C(Cc1ccc(O)cc1)N/N=C/c1cccnc1`, the solubility (kinetic) is above 38.3 µg/mL.

As for `Oc1ccccc1C(=S)N1CCN(C(=S)c2ccccc2O)CC1`, the solubility (kinetic) stood at 5.1 µg/mL (≈ 14.2 µM).

For `COc1cc(/C=C/C(=O)OCC(=O)Nc2cc(S(=O)(=O)N3CCCC3)ccc2Cl)cc(OC)c1OC`, the kinetic solubility came to 4.3 µg/mL (≈ 7.98 µM).

Consider `COc1ccc(CNc2ccc([N+](=O)[O-])cn2)cc1`, for which the solubility (kinetic) was 3 µg/mL (≈ 11.6 µM). The solubility kinetic values of the last two compounds are within 1.5-fold of each other.

`Cc1cccc(-c2noc(-c3ccccc3C(=O)NCc3ccco3)n2)c1` came in with a kinetic solubility of 8.9 µg/mL (≈ 24.8 µM).

Consider `Cc1cc(OC(=O)c2ccc(C(C)(C)C)cc2)c([N+](=O)[O-])c(=O)[nH]1`, for which the solubility (kinetic) came out at 46.4 µg/mL (≈ 140 µM). This solubility kinetic lies about 5.2-fold higher than the previous one.

Regarding `CCN1C(=O)/C(=C/N2CCc3ccccc3C2)SC1=S`, the solubility (kinetic) was below 0.3 µg/mL.

In the case of `Cc1ccccc1-c1nc(S(=O)(=O)c2ccccc2)c(N2CCCC2)o1`, the kinetic solubility was 10.1 µg/mL (≈ 27.4 µM).

In turn, `CCCc1nc2ccccc2c(C(=O)OCC(=O)NC2CC2)c1CC` showed a kinetic solubility above 51.1 µg/mL.

As to `O=C(Nc1ccncc1)c1c(Cl)cccc1Cl`, the kinetic solubility was 8.9 µg/mL (≈ 33.3 µM).

`O=S(=O)(NCc1csc(-c2cccs2)n1)c1ccccc1` showed a solubility (kinetic) of 40.6 µg/mL (≈ 121 µM).

Regarding `[Br-].c1ccc(C[n+]2ccc3ccccc3c2)cc1`, the solubility (kinetic) came out at 43.9 µg/mL.

Compound `COc1cccc(NC(=O)c2ccc3nc(C)sc3c2)c1` displayed a kinetic solubility of 38.7 µg/mL (≈ 130 µM). The solubility kinetic values of the last two compounds are within 1.5-fold of each other.

Consider `O=C(C(Cl)Cl)N1CCN(Cc2ccc3c(c2)OCO3)CC1`, for which the solubility (kinetic) amounted to 42.6 µg/mL (≈ 129 µM).

Take `COc1cc(/C=C/c2nc3ccccc3c(=O)[nH]2)cc(Cl)c1O`: the kinetic solubility is 43.2 µg/mL (≈ 131 µM).

Compound `COc1ccc(C(=O)NCCCNC(=O)c2ccc(C)nc2)cc1` yielded a solubility (kinetic) above 49.1 µg/mL.

In turn, `CCCOc1nc2ccccc2cc1/C=C/C(=O)O` yielded a kinetic solubility of 8.3 µg/mL (≈ 32.3 µM).

In turn, `O=C(CN1c2cccc3cccc(c23)S1(=O)=O)N1CCN(c2ccccc2)CC1` came in with a solubility (kinetic) of 3.4 µg/mL (≈ 8.34 µM).

For `CCOc1ccccc1C(=O)NCC(=O)OCC(=O)N1CCCC1`, the solubility (kinetic) was above 50.2 µg/mL.

`O=C(CNC(=O)c1ccccc1)NCCCSc1ccccc1` returned a solubility (kinetic) of 25.2 µg/mL (≈ 76.7 µM).

Take `CCCCN(C)C(=O)c1cc2cc([N+](=O)[O-])cc(OC)c2oc1=O`: the solubility (kinetic) was above 50.1 µg/mL.

`O=C(Nc1ccc(S(=O)(=O)N2CCc3ccccc32)cc1)C(F)(F)F`: the kinetic solubility was above 55.6 µg/mL.

As for `O=C(/C=C/c1ccc(Cl)c([N+](=O)[O-])c1)c1cccnc1`, the solubility (kinetic) is 2.2 µg/mL (≈ 7.62 µM).

The compound `CCN(C(=O)C(=O)c1c[nH]c2ccccc12)c1ccccc1` had a kinetic solubility above 43.9 µg/mL.

Regarding `O=C(O)C(Cc1ccccc1)N=C(NS(=O)(=O)c1ccccc1)c1ccccc1` (stereo unspecified), the solubility (kinetic) is above 61.3 µg/mL.

For `NS(=O)(=O)c1ccc(NC(=O)Nc2ccc(S(N)(=O)=O)cc2)cc1`, the kinetic solubility was found to be 9.7 µg/mL (≈ 26.2 µM).

In turn, `CNC(=O)C12N=CNN=C1N(C)C(=O)N2C` (stereo unspecified) had a kinetic solubility above 33.6 µg/mL.

Take `Cc1ccc(S(=O)(=O)N2CCOCC2)cc1NC(=O)c1ccc(F)cc1F`: the kinetic solubility was found to be 8.2 µg/mL (≈ 20.7 µM).

`Cc1cccc(OCC(=O)NCCNC(=O)c2ccncc2)c1` came in with a kinetic solubility of 42.3 µg/mL (≈ 135 µM).

Compound `O=C(NC(=S)NC1CCS(=O)(=O)C1)c1ccccc1` (stereo unspecified) registered a kinetic solubility above 44.8 µg/mL.

As to `COc1ccc2oc(C(=O)NCCC(C)C)c(C)c2c1`, the solubility (kinetic) worked out at 1.8 µg/mL (≈ 6.54 µM).

In turn, `O=C(COC(=O)c1cccc(Cl)c1)NC(=O)NCc1ccccc1` registered a solubility (kinetic) of 3.6 µg/mL (≈ 10.4 µM).

`O=C(COC(=O)c1ccc2ccccc2n1)NC1CCCCC1` came in with a solubility (kinetic) of 8.5 µg/mL (≈ 27.2 µM).

In the case of `Cc1ccc(S(=O)(=O)NCc2cccnc2)cc1`, the kinetic solubility was above 39.3 µg/mL.

For the compound `Cc1onc(-c2ccccc2)c1C(=O)NCc1ccccc1F`, the kinetic solubility came to 6.5 µg/mL (≈ 20.9 µM).

The compound `CCOC(=O)c1cnc(-c2ccccc2)nc1N1CC(C)OC(C)C1` (stereo unspecified) displayed a solubility (kinetic) of 32.1 µg/mL (≈ 94 µM).

`O=C(Nc1ccccc1)OCCOc1ccc(Br)cc1`: the solubility (kinetic) is below 0.7 µg/mL.

Take `O=C(COc1ccccc1[N+](=O)[O-])N1CCCc2ccccc21`: the solubility (kinetic) was above 46.8 µg/mL.

For the compound `CC(=O)Nc1ccc(S(=O)(=O)N2CCSC2)cc1`, the kinetic solubility was 29.8 µg/mL (≈ 104 µM).

For `Cc1cc(C(=O)NCCC(C)C)c2ccccc2n1`, the kinetic solubility is 31 µg/mL (≈ 121 µM).

`O=C(COC(=O)Cc1ccccc1F)Nc1ccc(F)cc1F` displayed a solubility (kinetic) of 47.9 µg/mL (≈ 148 µM). This solubility kinetic lies about 1.5-fold higher than the previous one.

`CCCCCn1c(=O)c(C(=O)OCC)c(Cl)c2ccccc21` gave a kinetic solubility of 6.5 µg/mL (≈ 20.2 µM).

`O=C(COc1cccnc1[N+](=O)[O-])Nc1cccc2ccccc12` came in with a kinetic solubility of 22.7 µg/mL (≈ 70.2 µM).

The compound `COC(=O)c1ccc(OC(=O)c2cnccn2)cc1` came in with a kinetic solubility above 38.7 µg/mL.

Regarding `COc1ccc(NS(=O)(=O)c2cc(NC(=O)c3ccccn3)ccc2OC)cc1Br`, the kinetic solubility was 3.4 µg/mL (≈ 6.91 µM).

`O=C(CCl)c1cc2c3c(c1)CC(=O)N3CCC2` showed a kinetic solubility above 37.5 µg/mL.

Turning to `CC1CCN(CC(=O)Nc2nccs2)CC1`, the solubility (kinetic) is above 35.9 µg/mL.
